The values that follow come from US20080039434A1, “Treatment of Interstitial Cystitis with Vitamin D Compounds” (BioXell S. p.A., priority 2004, published 2008).

A short description of data set [1]: Calcemia assessment in allergic IC mice (colorimetric serum calcium assay). The class given is in vivo, mouse. To be noted: oral ug/kg: C 3, A 0.1, E 0.3, F 30, G 100, H 1, I 3; elevations p<0.001. The procedure:
Serum calcemia was evaluated by a commercially available colorimetric assay (Calcium Dry-Fast, Sentinel CH. Italy). Briefly, 10 ul serum were added to 100 ul reaction solution prepared according to the manufacturer's procedure in a 96-wells plate. After 5 min incubation at RT samples were read at 570 nm with a spectrophotometer and the calcium levels were calculated in triplicate by using a standard reference as directed.

Data set [2] relates to ovalbumin-challenged mouse bladder. Nature of the data set: Blind histological analysis of bladder sections, allergic IC in mice. To be noted: p<0.05; for number of LMPC in the bladder wall: oral ug/kg: E 0.3, I 3, vs vehicle. The data set is classed as in vivo. The procedure:
(§1) Mice (BALB/c, females 8 weeks old, weight 18-20 g, Charles River, Calco ITA) were sensitized by injecting 10 ug/mouse of chicken ovalbumin from Sigma (OVA, grade V) in the presence of 4 mg of alum (SERVA, Germany) by intraperitoneal injection, once a week for 4 weeks. This induces a sustained level of IgE detectable in serum.
(§2) One or two weeks after the last immunization boost, sensitized mice were anesthetized (1.5% Isoflurane) and then trans-urethrally catheterized (24 gauge, ¾ in.; Angiocath, Becton-Dickson). Slight digital pressure was applied the lower abdomen to drain the urine.
(§3) The urinary bladders were instilled with either 150 ul of either saline or OVA alone, (1 mg/150 ul) infused at a slow rate to avoid trauma and vesico-ureteral reflux and repeated twice within a 30-min interval with the syringe kept in place on the catheter for at least 30 min. Intravesical challenge was repeated 7-10 days after the first one with the same procedure.
(§4) An ethanol stock solution of Compound B (1 mg/ml) was dissolved in Miglyol vehicle at the appropriate concentration. Control animals received the vehicle containing the same amount of ethanol. Drug (or vehicle) treatment was carried out by daily gavage after weighing the animal. Drug solution was prepared calculating a final volume of 100 ul/10 grams body weight, and treatment was started on the day of the first intravesical ovalbumin challenge, maintained daily, but discontinued over the weekends, for 12 days total treatment. FIG. 7 illustrates the timeline of the experiment.
Bladders were explanted from the animals, longitudinally divided in two moieties, one half was either immediately fixed in formalin (10% buffered) for at least 3 hrs or snap frozen in liquid nitrogen upon inclusion in OCT freezing medium (Tissue-Tek Sakura). For histological analysis, fixed bladders were further processed and finally paraffin embedded. Five um sections were serially cut then stained with GIEMSA (BDH, 20% solution, 3 hrs RT) and then de-stained in 0.1% acetic acid for 10 sec. After a clarification step in Xylene, slides were permanently mounted with Eukitt medium and analyzed by a pathologist in a blinded fashion in order to evaluate for inflammatory cell infiltrate, mast cell numbers, and the presence of interstitial edema. A semi-quantitative histological score was used, assigning: 1 for mild infiltrate, no edema; 2 for intermediate infiltration, little edema; and 3 for severe infiltration and edema.
(§5) Experiments in Example 7 were performed according to the general procedures described previously in Example 6. Mice were challenged with saline (untreated) or ovalbumin (treatment with vehicle or one of Compounds C-I at a dosage indicated in Table 6 in ug/kg).

The next data set concerns IL-13. The data set can be described thus: Taq-Man analysis of bladder mRNA, allergic IC in mice: IL-13. The data set is classed as in vivo, mouse. To be noted: ovalbumin challenged vs vehicle; oral ug/kg: E 0.3, F 30, H 1, I 3; H, I p<0.05, E, F p<0.001. How it is done: as §1, §2, §3, §4
(§6) Total RNA was extracted from one half of bladder by using RNeasy Mini kit (Qiagen), treated with DNase 1 (Qiagen) and reverse transcription performed with Reverse Transcription Reagent (Applied Biosystems) with Random Hexamers (according to the manufacturer's instructions). cDNA was synthesized from 1 ug of RNA. Real-Time PCR was performed in 96-well optical reaction plates (Applied Biosystems). For each sample we amplified both the target gene and the housekeeping gene (HPRT) in different wells (singleplex) and in duplicate. The amplification Master Mix was prepared according to the following protocol (volumes refer to a single well with a final volume of 40 ul/well)): 2× TaqMan® R Universal PCR Master Mix (Applied Biosystems, 4304437): 20 ul; 20× Assay target gene: 2 ul; H2O: 8 ul; cDNA: 10 ul. Reaction was run on an SDS 7000 (Applied Biosystems) instruments, with the following amplification program: 2′ at 50° C.; 10′ at 95° C.; 15″ at 95° C. and 1′ at 60° C. for 40 cycles; Cycle threshold (Ct) values were exported into Excel Worksheets for analysis and relative quantitations were performed using the ΔCt method. All primers used carried the FAM reporter.
as §5

For the next data set, the system named is MMCP1 protein. Nature of the data set: Serum level of mast-cell derived chymase MMCP1 protein, allergic IC in mice. As to conditions: ovalbumin challenged vs vehicle; oral ug/kg: A 0.1, E 0.3, F 30; F p<0.05, A, E p<0.001. The class given is in vivo, mouse. How it is done:
as §1, §2, §3
Treatment Group: 10 mice were treated with oral vitamin D3 analogue (1-alpha-fluoro-25-hydroxy-16,23Ediene-26,27-bishomo-20-epi-cholecalciferol) Compound “B” for 14 days (daily dose of either 30 or 75 ug/kg).
as §4, §5

The subject of data set [3] is allergen-induced chronic bladder inflammation. Nature of the data set: Efficacy ranking in the allergen-induced chronic bladder inflammation model of interstitial cystitis. To be noted: each compound at its tested dosage. The data set is classed as in vivo, mouse. How it is done:
as §5
Summarizing all the results presented above in Example 7, we can conclude that these compounds can be ranked with respect to their efficacy in reducing several parameters measuring inflammation of the bladder in the allergen-induced chronic bladder inflammation model of interstitial cystitis.

Another data set deals with MMCP4. Nature of the data set: Taq-Man analysis of bladder mRNA, allergic IC in mice: MMCP4. The class given is in vivo, mouse. As to conditions: ovalbumin challenged vs vehicle; oral ug/kg: E 0.3, F 30, H 1, I 3; H, I p<0.05, E, F p<0.001. How it is done:
as §1, §2, §3, §4, §6, §5

Another data set relates to FcεR1α. The data set can be described thus: Taq-Man analysis of bladder mRNA, allergic IC in mice: FcεR1α. As to conditions: ovalbumin challenged vs vehicle; oral ug/kg: E 0.3, F 30, H 1; E, H p<0.05, F p<0.001. The data set is classed as in vivo, mouse. The procedure: as §1, §2, §3, §4, §6, §5
For a further data set, the system named is BPH cells. To be noted: previously found; cited from earlier work.
Data set [4] relates to patients with interstitial cystitis. To be noted: oral administration, long term basis; cited from earlier work.

For the compound `CC(=O)OC1C/C(=C/C=C2\CCC[C@]3(C)C(C(C)CCCC(C)(C)O)=CCC23)C[C@@H](OC(C)=O)C1` (stereo partly shown) [Compound C, 1,3-Di-O-acetyl-1,25-dihydroxy-16-ene-19-nor-cholecalciferol], the “serum calcium levels relative to the vehicle treated control group” value in [1] is on record as “slight elevation”. In addition, the “numbers of mast cells in the bladder wall” value in data set [2] (3 ug/kg oral vs vehicle) is on record as “significantly reduced numbers”.

As to `CC(=O)OC1C/C(=C/C=C2\CCC[C@@]3(C)C2CCC3C2(C/C=C/C(O)(C(F)(F)F)C(F)(F)F)CC2)C[C@@H](OC(C)=O)C1` (stereo partly shown) [Compound E, 1,3-Di-O-acetyl-1,25-dihydroxy-20-cyclopropyl-23E-ene-26,27-hexafluoro-19-nor-cholecalciferol], the “serum calcium levels relative to the vehicle treated control group” value in data set [1] is “slight elevation”. Besides, the “mRNA expression level of the IL-13 gene” value in the data set on IL-13 is given as “statistically significant reductions”. Moreover, in the data set on MMCP1 protein, the “serum level of the MMCP1 protein” value is recorded as “statistically significant reduction”. Besides, in data set [2], the “number of LMPC in the bladder wall” value is “significant reduction”. Moreover, the “Efficacy ranking in reducing parameters of bladder inflammation” value (“Efficacy ranking in reducing parameters” for short) in data set [3] is recorded as “Compound E>Compound F>Compound B>Compound H>Compound I>Compound A>Compound A=Compound G”. The “mRNA expression level of MMCP4 gene” value with MMCP4 is “statistically significant reductions”. Besides, in the data set with FcεR1α, the “mRNA expression level of the FcεR1α gene” value was “statistically significant reductions”.

On to `C=C1/C(=C\C=C2/CCC[C@@]3(C)C2CCC3C2(CCCC(C)(C)O)CC2)CC(OC(C)=O)C[C@@H]1OC(C)=O` (stereo partly shown) [Compound F, 1,3-Di-O-acetyl-1,25-dihydroxy-20-cyclopropyl-cholecalciferol], for which the “serum calcium levels relative to the vehicle treated control group” value in data set [1] is given as “slight elevation”. The “mRNA expression level of the IL-13 gene” value in the data set with IL-13 is “statistically significant reductions”. Also, the “serum level of the MMCP1 protein” value with MMCP1 protein is “statistically significant reduction”. For the same compound, the “Efficacy ranking in reducing parameters” value in data set [3] is “Compound E>Compound F>Compound B>Compound H>Compound I>Compound A>Compound A=Compound G”. In addition, the “mRNA expression level of MMCP4 gene” value with MMCP4 is on record as “statistically significant reductions”. Moreover, the “mRNA expression level of the FcεR1α gene” value in the data set with FcεR1α was “statistically significant reductions”.

Take `C=C1/C(=C\C=C2/CCC[C@]3(C)C(C4(CCCC(C)(C)O)CC4)=CCC23)CC(O)C[C@@H]1O` (stereo partly drawn) [Compound H, 1α,25-Dihydroxy-16-ene-20-cyclopropyl-cholecalciferol]: the “serum calcium levels relative to the vehicle treated control group” value in [1] is “slight elevation”. In addition, the “mRNA expression level of the IL-13 gene” value in the data set on IL-13 is “statistically significant reductions”. In addition, in data set [3], the “Efficacy ranking in reducing parameters” value is reported as “Compound E>Compound F>Compound B>Compound H>Compound I>Compound A>Compound A=Compound G”. The “mRNA expression level of MMCP4 gene” value in the data set with MMCP4 is reported as “statistically significant reductions”. The “mRNA expression level of the FcεR1α gene” value in the data set with FcεR1α was “statistically significant reductions”.

`CC(C)(O)CCCC(CCCC(C)(C)O)[C@H]1CC[C@H]2/C(=C/C=C3C[C@@H](O)C[C@H](O)C3)CCC[C@]12C` [Compound I, 1,25-dihydroxy-21-(3-hydroxy-3-methylbutyl)-19-nor-cholecalciferol]: in [1], the “serum calcium levels relative to the vehicle treated control group” value is “slight elevation”. Besides, the “mRNA expression level of the IL-13 gene” value in the data set with IL-13 was “statistically significant reductions”. For the same compound, the “number of LMPC in the bladder wall” value in data set [2] is listed as “significant reduction”. For the same compound, in data set [3], the “Efficacy ranking in reducing parameters” value is on record as “Compound E>Compound F>Compound B>Compound H>Compound I>Compound A>Compound A=Compound G”. Also, in the data set with MMCP4, the “mRNA expression level of MMCP4 gene” value is given as “statistically significant reductions”.

As for `C=C1CC[C@H](O)C/C1=C/C=C1\CCC[C@]2(C)[C@@H]([C@H](C)CCCC(C)C)CC[C@@H]12` [vitamin D3], in the data set with BPH cells, the BPH cell proliferation entry is reported as “inhibited”; the “mitogenic activity of growth factors KGF and IGF1 for BPH cells” value is “counteracted”.

For the compound pentosan polysulphate sodium [PPS], the “patients who show a beneficial effect” value in data set [4] is reported as “less than 20%”.
